These results are taken from PMC11500415, “Chemical inhibition of stomatal differentiation by perturbation of the master-regulatory bHLH heterodimer via an ACT-Like domain” (Nature Communications, 2024).

Holding throughout (assay type): cell-based
Test [1] addresses T1, SCRM-FAMA heterodimer (Arabidopsis thaliana, UniProt Q56YJ8).
T1 construct: heterodimerization of SCRM with full-length SPCH, MUTE, or FAMA in the context of the plant cells; combinations of split YFP constructs fused to the full-length stomatal bHLH proteins; nYFP (N terminus of EYFP, 174 amino acids); cYFP (C terminus of EYFP, 64 amino acids); expressed in transfected cells; host or cells: Nicotiana benthamiana leaves (Agrobacterium infiltration)
T1 sequence (Q56YJ8 1-414): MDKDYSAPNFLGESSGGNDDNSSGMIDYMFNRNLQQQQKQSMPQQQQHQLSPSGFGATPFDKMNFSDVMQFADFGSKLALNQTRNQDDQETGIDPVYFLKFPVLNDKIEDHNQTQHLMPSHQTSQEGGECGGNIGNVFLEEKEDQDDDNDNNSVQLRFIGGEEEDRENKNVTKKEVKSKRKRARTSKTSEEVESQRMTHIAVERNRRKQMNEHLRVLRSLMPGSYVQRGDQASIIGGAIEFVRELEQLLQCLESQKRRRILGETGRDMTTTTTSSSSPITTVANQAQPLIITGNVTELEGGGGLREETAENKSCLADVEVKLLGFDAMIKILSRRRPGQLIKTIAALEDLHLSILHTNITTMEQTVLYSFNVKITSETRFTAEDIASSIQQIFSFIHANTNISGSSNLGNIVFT
The experiment in a line: Ratiometric BiFC in N. benthamiana leaves. The conditions noted are these: 100 μM, 1 day. An excerpt:
(§1) For ratiometric BiFC assays, the cDNAs of SPCH, MUTE, and FAMA were cloned into the 35S CaMV promoter-driven destination vector pSPYNE, which contains the N terminus of the EYFP protein (nYFP-174 amino acids), while the cDNA of SCRM and SCRM2 was inserted into pSPYCE, which contains the C terminus of the EYFP protein (cYFP-64 amino acids) (see Supplementary Table 5 for detailed information of the constructs). The constructs were then transformed into Agrobacterium tumefaciens strain GV3101. The Agrobacterium was resuspended in infiltration buffer (10 mM MgCl2, 10 mM 2-(N-morpholino)ethanesulfonic acid [pH 5.6], and 150 µM acetosyringone). Bacterial culture densities were adjusted to a final optical density (OD600) of 1.0, and the cell suspensions were incubated at room temperature for 4 hours prior to infiltration. Equal volumes of cultures carrying the corresponding complementary pair of BiFC constructs (YFPn and YFPc), along with CaMV35S::Histone H2B-mScarlet-I3 and the silencing suppressor plasmid p19 (a gift from Dr. Sir David Baulcombe) were mixed and then co-infiltrated into 4-week-old N. benthamiana leaves. The infiltrated N. benthamiana leaves were incubated at 25 °C for 2 days. Subsequently, leaf discs were cut out and cultured in mock or in liquid 1/2 MS media in mock (DMSO) or 100 µM Stomidazolone for 1 day. Confocal imaging of N. benthamiana leaves was performed using a Leica SP8 confocal microscope using a 20X objective lens (Leica Microsystems), simultaneously capturing YFP (excitation at 518 nm and emission at 530 nm) and mScarlet-I3 (excitation at 569 nm and emission at 600 nm) differential interference contrast channels.

Test [2] concerns the target T2, SCRM-MUTE heterodimer (Arabidopsis thaliana, UniProt Q9M8K6).
T2 construct: expressed in transfected cells; host or cells: yeast strain AH109
T2 sequence (Q9M8K6 1-202): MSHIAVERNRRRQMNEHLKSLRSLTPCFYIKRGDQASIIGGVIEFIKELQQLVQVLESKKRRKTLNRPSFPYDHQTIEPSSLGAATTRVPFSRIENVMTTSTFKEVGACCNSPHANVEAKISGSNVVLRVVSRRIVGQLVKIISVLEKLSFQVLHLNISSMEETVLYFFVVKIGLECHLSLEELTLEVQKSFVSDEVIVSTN
The experiment in a line: Ratiometric BiFC in N. benthamiana leaves. The conditions noted are these: 100 μM, 1 day.
From the text: as §1

For test [3], the target named is T3, SCRM2-FAMA heterodimer (Arabidopsis thaliana, UniProt Q56YJ8).
T3 construct: heterodimerization of SCRM with full-length SPCH, MUTE, or FAMA in the context of the plant cells; we performed rBiFC assays using full-length SCRM2; nYFP (N terminus of EYFP, 174 amino acids); cYFP (C terminus of EYFP, 64 amino acids); expressed in transfected cells; host or cells: Nicotiana benthamiana leaves (Agrobacterium infiltration)
The test is described as follows: Ratiometric BiFC in N. benthamiana leaves. The conditions noted are these: 100 µM.
From the text: as §1

Test [4] addresses T4, SCRM2-MUTE heterodimer (Arabidopsis thaliana, UniProt Q9M8K6).
T4 construct: heterodimerization of SCRM with full-length SPCH, MUTE, or FAMA in the context of the plant cells; nYFP (N terminus of EYFP, 174 amino acids); expressed in transfected cells; host or cells: Nicotiana benthamiana leaves (Agrobacterium infiltration)
The experiment in a line: Ratiometric BiFC in N. benthamiana leaves. The conditions noted are these: 100 µM.
From the text: as §1

Test [5] deals with T5, SCRM-SPCH heterodimer (Arabidopsis thaliana, UniProt Q700C7).
T5 construct: heterodimerization of SCRM with full-length SPCH, MUTE, or FAMA in the context of the plant cells; combinations of split YFP constructs fused to the full-length stomatal bHLH proteins; nYFP (N terminus of EYFP, 174 amino acids); cYFP (C terminus of EYFP, 64 amino acids); expressed in transfected cells; host or cells: Nicotiana benthamiana leaves (Agrobacterium infiltration)
T5 sequence (Q700C7 1-364): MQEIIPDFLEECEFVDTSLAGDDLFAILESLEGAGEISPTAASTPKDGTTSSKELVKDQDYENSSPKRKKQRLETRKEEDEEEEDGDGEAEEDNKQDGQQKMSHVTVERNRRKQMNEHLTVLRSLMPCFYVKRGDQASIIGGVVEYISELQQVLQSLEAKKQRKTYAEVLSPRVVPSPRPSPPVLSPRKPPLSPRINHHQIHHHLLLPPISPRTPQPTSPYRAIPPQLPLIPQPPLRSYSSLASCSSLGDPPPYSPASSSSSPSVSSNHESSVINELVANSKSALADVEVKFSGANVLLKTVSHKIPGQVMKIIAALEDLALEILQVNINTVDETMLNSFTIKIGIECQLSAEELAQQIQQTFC
The conditions noted are these: 100 μM, 1 day.
From the text: as §1

Take `O=C1C(c2ccccc2)=NC(NS(=O)(=O)c2ccccc2)(c2ccccc2)N1S(=O)(=O)c1ccccc1` (centres unmarked) [Stomidazolone]: the “effect on heterodimerization, YFP/RFP signal ratio (in words)” value in test [1] is “not affecting”; in test [2] it was “severely perturbs”; in test [5], “weakly affecting”. The “effect on heterodimerization (in words)” value in test [3] and in test [4] was “abolished” throughout.
